Data as given in BindingDB's records for doi:10.1016/j.bmc.2008.11.020 (Astellas Pharma, 2008).

Experiments:
[1] = Antagonist activity at mouse CCR4 receptor expressed in mouse B300-19 cells assessed as CCL22-induced chemotaxis
[2] = Antagonist activity at human CCR4 receptor expressed in mouse B300-19 cells assessed as CCL22-induced chemotaxis

Row | Compound | IC50 [1] | IC50 [2]
1 | COc1cc2nc(N3CCC(N4CCCC(O)C4)CC3)nc(Nc3ccc(Cl)cc3)c2cc1OC (stereo unspecified) [1'-{4-[(4-Chlorophenyl)amino]-6,7-dimethoxyquinazolin-2-yl}-1,4'-bipiperidin-3-ol] | 430 nM | 85 nM
2 | COc1cc2nc(N3CCC(N4CCCC(OC)C4)CC3)nc(Nc3ccc(Cl)cc3)c2cc1OC (stereo unspecified) [N-(4-chlorophenyl)-6,7-dimethoxy-2-(3-methoxy-1,4'-bipiperidin-1'-yl)quinazolin-4-amine] | 420 nM | 510 nM
3 | COc1cc2nc(N3CCC(N4CCCCC4)CC3)nc(NC3CCCCCC3)c2cc1OC [N-cycloheptyl-6,7-dimethoxy-2-(4-(piperidin-1-yl)piperidin-1-yl)quinazolin-4-amine] | 39 nM | 140 nM
4 | COc1cc2nc(N3CCC(N4CCOC(CO)C4)CC3)nc(Nc3ccc(Cl)cc3)c2cc1OC (stereo unspecified) [[4-(1-{4-[(4-Chlorophenyl)amino]-6,7-dimethoxyquinazolin-2-yl}piperidin-4-yl)morpholin-2-yl]methanol] |  | 620 nM
5 | COc1cc2nc(N3CCC(N4CCCC(CO)C4)CC3)nc(NC3CCCCCC3)c2cc1OC (stereo unspecified) [{1'-[4-(Cycloheptylamino)-6,7-dimethoxyquinazolin-2-yl]-1,4'-bipiperidin-3-yl}methanol] | 19 nM | 100 nM

The next lines start with the values.

Row | IC50 [1] | IC50 [2] | Compound
6 | 390 nM |  | COc1cc2nc(N3CCC(N4CCCC(CO)C4)CC3)nc(NCCc3ccc(Cl)cc3)c2cc1OC (stereo unspecified) [1'-(4-{[2-(4-Chlorophenyl)ethyl]amino}-6,7-dimethoxyquinazolin-2-yl)-1,40-bipiperidin-3-yl]methanol]
7 | 140 nM | 450 nM | COc1cc2nc(N3CCC(N4CCCC(CO)C4)CC3)nc(NCc3ccc(Cl)cc3)c2cc1OC (stereo unspecified) [(1'-{4-[(4-Chlorobenzyl)amino]-6,7-dimethoxyquinazolin-2-yl}-1,4'-bipiperidin-3-yl)methanol]
8 | 58 nM | 23 nM | COc1cc2nc(N3CCC(N4CCCC(CO)C4)CC3)nc(Nc3ccc(Cl)cc3)c2cc1OC (stereo unspecified) [(1'-{4-[(4-Chlorophenyl)amino]-6,7-dimethoxyquinazolin-2-yl}-1,4'-bipiperidin-3-yl)methanol]
9 | 230 nM | 64 nM | COCC1CCCN(C2CCN(c3nc(Nc4ccc(Cl)cc4)c4cc(OC)c(OC)cc4n3)CC2)C1 (stereo unspecified) [N-(4-Chlorophenyl)-6,7-dimethoxy-2-[3-(methoxymethyl)-1,4'-bipiperidin-1'-yl]quinazolin-4-amine]
